Laboratory results published in US9253983B2, “Triazole compound and use thereof” (KUREHA CORPORATION, priority 2011, dated 2016).

How the values were obtained:
[1] = test system: Pseudocercoporella herpotrichoides; assay: Test 1 for antifungal effect, plate medium: P.h; type: cell-based; conditions: PDA plate medium
Procedure: (§1) Compound (1-1a) or Compound (1-2a) was dissolved in dimethyl sulfoxide, and the resulting solution was added to a PDA medium (potato dextrose-agar medium) at about 60° C. The medium and the solution were mixed thoroughly in a conical flask, poured into a petri dish, and allowed to solidify. In this way, a plate medium containing Compound (1-1a) or Compound (1-2a) at a certain concentration was prepared.
(§2) Meanwhile, test microorganisms cultured on a plate medium in advance were cut out with the use of a cork borer 4 mm in diameter, and were inoculated onto the compound-containing plate medium. After the inoculation, the microorganisms were cultured at their optimum growth temperatures (for example, refer to LIST OF CULTURES 1996 microorganisms 10th edition, Institute for Fermentation (foundation)) for 1 day to 7 days, and their growth was determined by measuring the diameter of their flora. The extent of growth of the microorganisms on the compound-containing plate medium was compared with that of microorganisms on a plate medium where no compound was added, and mycelial growth inhibition rate was calculated by the following equation: R=100(dc−dt)/dc where R is mycelial growth inhibition rate (%), dc is the flora diameter in untreated plate, and dt is the flora diameter in plate treated with the compound.
(§3) A larger antifungal index indicates a better antifungal effect.

rice plant [2] = assay: Necrosis (adverse effects) of seed treatment on rice plant seeds; type: in vivo; conditions: treatment amount 80 g ai/100 kg seeds, 20 days after sowing
Procedure: A pot experiment was performed to evaluate necrosis (adverse effects) caused by the seed treatment. Compound (1-1a) and Compound (1-2a), each which was dissolved in DMSO to make up such a concentration that the seeds would be treated in treatment amount of 2 g to 200 g ai/100 kg seeds, were each applied to wheat seeds in a vial, and thereafter 8 wheat seeds were sowed in an 80-cm^2 pot. The pot was kept in a greenhouse with water supplied to its bottom. 20 days after the sowing, an extent of necrosis (percentage of necrotic surface area) of wheat was evaluated. A necrosis index was derived from the percentage of the necrotic surface area, based on the criteria shown by Table 13. In Table 13, a smaller necrosis index indicates a lesser adverse effect of necrosis caused by the treatment with the use of a plant disease controlling agent.
A pot experiment was performed to evaluate necrosis (adverse effects) caused by the seed treatment. Compound (1-1a), which was dissolved in DMSO to make up such a concentration that the seeds would be treated in treatment amount of 80 g ai/100 kg seeds, was applied to rice plant seeds in a vial, and thereafter 16 rice plant seeds were sowed in a 50-cm^2 pot. […] 20 days after the sowing, an extent of necrosis (percentage of necrotic surface area) of rice plant was evaluated. A necrosis index was calculated as was in Experiment Example 6.

Cercospora beticola = assay: Test 1 for antifungal effect, plate medium: C.b; type: cell-based; conditions: PDA plate medium
Procedure: as §1, §2, §3

Alternaria alternata = assay: Test 1 for antifungal effect, plate medium: A.m; type: cell-based; conditions: PDA plate medium
Procedure: as §1, §2, §3

rice plant [3] = assay: Growth inhibition (adverse effects) of seed treatment on rice plant seeds; type: in vivo; conditions: treatment amount 80 g ai/100 kg seeds, 20 days after sowing
Procedure: A pot experiment was performed to evaluate the growth inhibition (adverse effects) caused by the seed treatment. Compound (1-1a) and Compound (1-2a), each of which was dissolved in DMSO to make up such a concentration that the seeds would be treated in treatment amount of 2 g to 200 g ai/100 kg seeds, were each applied to wheat seeds in a vial, and thereafter 8 wheat seeds were sowed in an 80-cm^2 pot. The pot was kept in a greenhouse with water supplied to its bottom. 20 days after the sowing, a growth measure of wheat was evaluated. A growth inhibition index was calculated based on the criteria shown by Table 10. In Table 10, a smaller growth inhibition index indicates a lesser adverse effect of growth inhibition caused by the treatment with the use of a plant disease controlling agent.
A pot experiment was performed to evaluate the growth inhibition (adverse effects) caused by the seed treatment. Compound (1-1a), which was dissolved in DMSO to make up such a concentration that the seeds would be treated in treatment amount of 80 g ai/100 kg seeds, was applied to rice plant seeds in a vial, and thereafter 16 rice plant seeds were sowed in a 50-cm^2 pot. The pot was kept in a greenhouse with water supplied to its bottom. 20 days after the sowing, a growth measure of rice plant was evaluated. A growth inhibition index was calculated as was in Experiment Example 5.

[4] = test system: Erysiphe graminis f. sp tritici; assay: Controlling effect on wheat powdery mildew by foliage spray treatment (Tests 1 and 2); type: in vivo; conditions: foliage spray 12.5 mg/L, 1,000 L/ha
Excerpt: The suspension was sprayed at 1,000 L/ha to leaves of wheat plants (cultivar: NORIN No. 61) in their second leaf stage. The wheat plants had been grown in square plastic pots (6 cm×6 cm). After the suspension was left to dry, the plants were inoculated with Erysiphe graminis f. sp tritici taken from wheat plants infected with wheat powdery mildew, by sprinkling. 8 days and 11 days after the inoculation, the lesion degree of the wheat powdery mildew was examined in accordance with the criteria shown in Table 4. The protective values were found in the same way as in Experiment Example 2.
The suspension was sprayed at 1,000 L/ha to leaves of wheat plants (cultivar: NORIN No. 61) in their second leaf stage. The wheat plants had been grown in square plastic pots (6 cm×6 cm). After the leaves were air-dried, they were inoculated with Erysiphe graminis f. sp tritici taken from wheat plants infected with wheat powdery mildew, by sprinkling. 8 days after the inoculation, the lesion degree of the wheat powdery mildew was examined. The protective values were calculated as were in Experiment Example 1.

rice Bakanae disease = assay: Efficacy of seed treatment on rice Bakanae disease; type: in vivo, Gibberella fujikuroi; conditions: rice seed treatment 80 g ai/100 kg seeds, 20 days after sowing
Procedure: A pot experiment was performed to evaluate the effectiveness of the seed treatment in controlling rice Bakanae disease. Compound (1-1a), which was dissolved in DMSO to make up such a concentration that the seeds would be treated in treatment amount of 80 g ai/100 kg seeds, was applied in a vial to seeds of a rice plant infected with rice Bakanae disease, and thereafter 16 rice plant seeds were sowed in a 50-cm^2 pot. The pot was kept in a greenhouse with water supplied to its bottom. 20 days after the sowing, examination was conducted on the percentage of seedlings infected with […]. Then, protective values were calculated as were in Experiment Example 4.

SMILES: CC1(CCl)CCC(Cc2ccc(Cl)cc2)C1(O)Cn1cncn1 (single isomer, unassigned) [Compound (1-1a), (1,2-cis, 1,5-cis)-5-(4-chlorobenzyl)-2-chloromethyl-2-methyl-1-(1H-1,2,4-triazole-1-ylmethyl)cyclopentanol]
- Antifungal index (mycelial growth inhibition rate) ([1]; 0.16 mg/L): 1 (Less than 60%)
- Antifungal index (mycelial growth inhibition rate) ([1]; 0.31 mg/L): 5 (90% or greater)
- Antifungal index (mycelial growth inhibition rate) ([1]; 0.63 mg/L): 5 (90% or greater)
- Antifungal index (mycelial growth inhibition rate) ([1]; 1.25 mg/L): 5 (90% or greater)
- Antifungal index (mycelial growth inhibition rate) ([1]; 2.50 mg/L): 5 (90% or greater)
- Necrosis index (rice plant [2]): 0 (Less than 1%)
- Antifungal index (mycelial growth inhibition rate) (Cercospora beticola; 0.16 mg/L): 4 (Less than 90% but not less than 80%)
- Antifungal index (mycelial growth inhibition rate) (Cercospora beticola; 0.31 mg/L): 5 (90% or greater)
- Antifungal index (mycelial growth inhibition rate) (Cercospora beticola; 0.63 mg/L): 5 (90% or greater)
- Antifungal index (mycelial growth inhibition rate) (Cercospora beticola; 1.25 mg/L): 5 (90% or greater)
- Antifungal index (mycelial growth inhibition rate) (Cercospora beticola; 2.50 mg/L): 5 (90% or greater)
- Antifungal index (mycelial growth inhibition rate) (Alternaria alternata; 0.16 mg/L): 1 (Less than 60%)
- Antifungal index (mycelial growth inhibition rate) (Alternaria alternata; 0.31 mg/L): 4 (Less than 90% but not less than 80%)
- Antifungal index (mycelial growth inhibition rate) (Alternaria alternata; 0.63 mg/L): 4 (Less than 90% but not less than 80%)
- Antifungal index (mycelial growth inhibition rate) (Alternaria alternata; 1.25 mg/L): 5 (90% or greater)
- Antifungal index (mycelial growth inhibition rate) (Alternaria alternata; 2.50 mg/L): 5 (90% or greater)
- Growth inhibition index (rice plant [3]): 0 (50% or more)
- Protective value (%) (8 days after treatment) [4]: 96%
- Protective value (%) (11 days after treatment) [4]: 84%
- Protective value (%) (rice Bakanae disease): 100%

SMILES: CC1(CCl)CCC(Cc2ccc(Cl)cc2)C1(O)Cn1cncn1 (single isomer, unassigned) [Compound (1-1b), (1,2-cis, 1,5-cis)-5-(4-chlorobenzyl)-2-chloromethyl-2-methyl-1-(1H-1,2,4-triazole-1-ylmethyl)cyclopentanol]
- Antifungal index (mycelial growth inhibition rate) ([1]; 0.16 mg/L): 1 (Less than 60%)
- Antifungal index (mycelial growth inhibition rate) ([1]; 0.31 mg/L): 1 (Less than 60%)
- Antifungal index (mycelial growth inhibition rate) ([1]; 0.63 mg/L): 2 (Less than 70% but not less than 60%)
- Antifungal index (mycelial growth inhibition rate) ([1]; 1.25 mg/L): 3 (Less than 80% but not less than 70%)
- Antifungal index (mycelial growth inhibition rate) ([1]; 2.50 mg/L): 4 (Less than 90% but not less than 80%)
- Necrosis index (rice plant [2]): 2 (Less than 20% but not less than 5%)
- Antifungal index (mycelial growth inhibition rate) (Cercospora beticola; 0.16 mg/L): 3 (Less than 80% but not less than 70%)
- Antifungal index (mycelial growth inhibition rate) (Cercospora beticola; 0.31 mg/L): 4 (Less than 90% but not less than 80%)
- Antifungal index (mycelial growth inhibition rate) (Cercospora beticola; 0.63 mg/L): 5 (90% or greater)
- Antifungal index (mycelial growth inhibition rate) (Cercospora beticola; 1.25 mg/L): 5 (90% or greater)
- Antifungal index (mycelial growth inhibition rate) (Cercospora beticola; 2.50 mg/L): 5 (90% or greater)
- Antifungal index (mycelial growth inhibition rate) (Alternaria alternata; 0.16 mg/L): 1 (Less than 60%)
- Antifungal index (mycelial growth inhibition rate) (Alternaria alternata; 0.31 mg/L): 3 (Less than 80% but not less than 70%)
- Antifungal index (mycelial growth inhibition rate) (Alternaria alternata; 0.63 mg/L): 4 (Less than 90% but not less than 80%)
- Antifungal index (mycelial growth inhibition rate) (Alternaria alternata; 1.25 mg/L): 4 (Less than 90% but not less than 80%)
- Antifungal index (mycelial growth inhibition rate) (Alternaria alternata; 2.50 mg/L): 5 (90% or greater)
- Growth inhibition index (rice plant [3]): 4 (Less than 20% but 10% or more)
- Protective value (%) (8 days after treatment) [4]: 71%
- Protective value (%) (11 days after treatment) [4]: 58%
- Protective value (%) (rice Bakanae disease): 66%
